Legend:
Assay in all cases: relative viability (nuclei count vs DMSO), 5 days (fraction); higher = more cells survive
PAC-1 + Crizotinib = compound: C=CCc1cccc(/C=N/NC(=O)CN2CCN(Cc3ccccc3)CC2)c1O [PAC-1] + C[C@@H](Oc1cc(-c2cnn(C3CCNCC3)c2)cnc1N)c1c(Cl)ccc(F)c1Cl [Crizotinib] (partner 1 µM)
Procedure, shortened: (§1)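 A single step with final 0.05% Triton X-100, 1% formaldehyde and 1 ug/ml Hoechst fixed the cells and stained nuclei 5 days after treatment. Lung cancer cell lines in 1536-well plates had been treated by pin tool the day after seeding with one drug alone or a fixed anchor-drug dose plus five library-drug doses (not always all listed) in √10 steps, and nuclei were counted on 4× images. Relative viability is the ratio of nuclei in treated wells to nuclei in vehicle wells, taken as the median of duplicate plates.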

PAC-1 + Phenformin = compound: C=CCc1cccc(/C=N/NC(=O)CN2CCN(Cc3ccccc3)CC2)c1O [PAC-1] + N=C(N)NC(=N)NCCc1ccccc1 [Phenformin] (partner 250 µM)
Procedure, shortened: as §1

PAC-1 + OSI-027 = compound: C=CCc1cccc(/C=N/NC(=O)CN2CCN(Cc3ccccc3)CC2)c1O [PAC-1] + COc1cccc2cc(-c3nc([C@H]4CC[C@H](C(=O)O)CC4)n4ncnc(N)c34)[nH]c12 [OSI-027] (partner 0.5 µM)
Procedure, shortened: as §1

BMX-IN-1 + AZD7762 = compound: C=CC(=O)Nc1cc(-n2c(=O)ccc3cnc4ccc(-c5ccc(NS(C)(=O)=O)cc5)cc4c32)ccc1C [BMX-IN-1] + NC(=O)Nc1cc(-c2cccc(F)c2)sc1C(=O)N[C@H]1CCCNC1 [AZD7762] (partner 0.2 µM)
Procedure, shortened: as §1

BMX-IN-1 + Bortezomib = compound: C=CC(=O)Nc1cc(-n2c(=O)ccc3cnc4ccc(-c5ccc(NS(C)(=O)=O)cc5)cc4c32)ccc1C [BMX-IN-1] + CC(C)C[C@H](NC(=O)[C@H](Cc1ccccc1)NC(=O)c1cnccn1)B(O)O [Bortezomib] (partner 0.002 µM)
Procedure, shortened: as §1

| Cell Line | relative viability (PAC-1 + Crizotinib; first compound 0.02 µM) | relative viability (PAC-1 + Crizotinib; first compound 0.06325 µM) | relative viability (PAC-1 + Crizotinib; first compound 0.2 µM) | relative viability (PAC-1 + Crizotinib; first compound 2 µM) | relative viability (PAC-1 + Phenformin; first compound 0.02 µM) | relative viability (PAC-1 + Phenformin; first compound 0.06325 µM) | relative viability (PAC-1 + Phenformin; first compound 0.2 µM) | relative viability (PAC-1 + Phenformin; first compound 2 µM) | relative viability (PAC-1 + OSI-027; first compound 0.02 µM) | relative viability (PAC-1 + OSI-027; first compound 0.06325 µM) | relative viability (PAC-1 + OSI-027; first compound 0.2 µM) | relative viability (PAC-1 + OSI-027; first compound 2 µM) | relative viability (BMX-IN-1 + AZD7762; first compound 0.02 µM) | relative viability (BMX-IN-1 + AZD7762; first compound 0.2 µM) | relative viability (BMX-IN-1 + AZD7762; first compound 0.6325 µM) | relative viability (BMX-IN-1 + AZD7762; first compound 2 µM) | relative viability (BMX-IN-1 + Bortezomib; first compound 0.02 µM) | relative viability (BMX-IN-1 + Bortezomib; first compound 0.2 µM) | relative viability (BMX-IN-1 + Bortezomib; first compound 0.6325 µM) | relative viability (BMX-IN-1 + Bortezomib; first compound 2 µM) |
| --- | --- | --- | --- | --- | --- | --- | --- | --- | --- | --- | --- | --- | --- | --- | --- | --- | --- | --- | --- | --- |
| LK-2 | 0.231 | 0.233 | 0.234 | 0.289 | 0.258 | 0.479 | 0.381 | 0.559 | 0.186 | 0.195 | 0.208 | 0.206 | 0.397 | 0.297 | 0.323 | 0.41 | – | – | – | – |
| NCI-H358 | 0.552 | 0.531 | 0.751 | 0.453 | 0.305 | 0.314 | 0.269 | 0.374 | 0.7 | 0.632 | 0.693 | 0.631 | 0.448 | 0.504 | 0.491 | 0.486 | – | – | – | – |
| NCI-H520 | 0.772 | 0.746 | 0.735 | 0.698 | 0.418 | 0.685 | 0.462 | 0.6 | 0.299 | 0.275 | 0.265 | 0.259 | – | – | – | – | 0.604 | 0.741 | 0.863 | 0.465 |
| NCI-H522 | – | – | – | – | 0.78 | 0.662 | 0.693 | 0.631 | 0.673 | 0.695 | 0.737 | 0.691 | 1.07 | 0.914 | 0.769 | 0.846 | – | – | – | – |
| NCI-H661 | 0.927 | 1.06 | – | 1.06 | 0.255 | 0.299 | 0.278 | 0.29 | 0.631 | 0.747 | 0.785 | 0.577 | – | – | – | – | 0.86 | 0.785 | 0.841 | 0.685 |

From the supplement of paper PMC10307832
